Assay results: patent US4268630A, “Microbiological production of ketones from C3 -C6 alkanes” (priority 1979, dated 1981)

Legend:
[1] = tested on: Torulopsis sp. Strain A1 (NRRL Y-11,419); assay: Oxidation of sec-alcohols to ketones by cell suspensions of yeasts; type: cell-based
[2] = tested on: cell-free soluble extract of Methylobacterium organophilum CRL 26 (NRRL B-11,222); assay: Oxidation of secondary alcohols by cell-free soluble extract (NAD added); type: biochemical; conditions: soluble crude extract, grown on methanol
Experimental: (§1) To prepare the cell-free secondary alcohol dehydrogenase (SADH) system, the washed cells were disrupted with a Wave Energy Ultrasonic Oscillator, Model W201 (Wave Energy System, Inc., Newtown, Pa.) and centrifuged at 20,000× g. for 30 minutes. […] The enzyme activity was measured with a fluorescence spectrophotometer (Perkin Elmer, Model MPF 44A) by following the formation of reduced NAD (EX 340 nm, Em 460 nm). The formation of reduced NAD was also followed with an absorption spectrophotometer at 340 nm. The assay system (3 ml.) contained: potassium phosphate buffer pH 7.0; 150 μmol.; NAD 1 μmol.; a given amount of enzyme preparation; and secondary alcohol 10 μmol. The reaction was started by the addition of substrate. One unit of enzyme activity represents the reduction of one μmole NAD per minute. Protein concentrations were determined by the Lowry method (J. Biol. Chem., 193: 255-275 (1951)).
(§2) The experimental procedure for the tests reported in Table VIII were as follows: 1 mg protein of crude extract was added into a 0.5 ml. 0.05 M phosphate buffer (pH 7.0) in a 10-ml. vial. […] The reaction mixture was incubated at 30° C. on a water bath. A 3 μl sample was removed with a syringe at 15 min. of incubation and was assayed with g.l.c. Catalytic activity was also assayed by fluorescence spectrophotometry.

[3] = tested on: cell-free soluble extract of Methylosinus trichosporium OB3b (NRRL B-11,196); assay: as above; type: biochemical; conditions: soluble crude extract, grown on methanol
Experimental: as §1, §2

[4] = tested on: cell-free soluble extract of Methylococcus capsulatus CRL M1 (NRRL B-11,219); assay: as above; type: biochemical; conditions: soluble crude extract, grown on methanol
Experimental: as §1, §2

[5] = tested on: cell-free soluble extract of Pseudomonas sp. CRL 75 (ATCC 21,439); assay: as above; type: biochemical; conditions: soluble crude extract, grown on methanol
Experimental: as §1, §2

[6] = tested on: Pseudomonas MS ATCC 25262; assay: Oxidation of sec-alcohols to ketones by resting cell suspension; type: cell-based; conditions: methanol-grown, facultative
Experimental: (§3) The pH of the nutrient medium was adjusted to 7.0 by the addition of acid or base and 50 ml. samples of the nutrient medium were charged into a plurality of 300 ml. shaker flasks. The shaker flasks were inoculated with an inoculating loop of cells from an agar plate containing homogeneous colonies of the microorganisms on the plate (the purity of the isolates was confirmed by microscopic examination). The isolates had been maintained on methanol (0.4% V/V) agar plates or on agar plates under an atmosphere of methane and air having a 1:1 V/V gas ratio which had been transferred every two weeks. For growth on methanol, the medium was supplemented with 0.4% methanol. For growth on methane, the gaseous phase of the inoculated flasks was replaced with a gas mixture comprised on methane and air having a ratio of 1:1 on a V/V basis. The inoculated flasks were sealed air-tight and were incubated on a rotary shaker of orbital radius 2.5 cm. at 250 rpm and at 30° C. for two days until turbidity in the medium had developed. The cells were harvested by centrifugation at 10,000×g. at 4° C. for 30 minutes. The cell pellet was washed twice with a 0.05 M phosphate buffer at a pH of 7.0 (containing 0.02 M MgCl2). The washed cells were then suspended in a 0.05 M phosphate buffer at pH 7.0.
(§4) A 0.5 ml. sample of each washed cell suspension (2 mg. cells) was put into 10 ml. vials at 4° C. which were sealed with a rubber cap. The gaseous phase of the vials was removed with vacuum and then was replaced with a gas mixture of the substrate reactant (i.e., alkane or secondary alcohol) and oxygen at a 1:1 V/V ratio. (In the case of a liquid substrate, i.e., secondary alcohol, 10 μl of the substrate was put in the 10 ml. vials). […] Samples of product (1-3 μl) were withdrawn periodically with a microsyringe and the products were analyzed by gas chromatography (ionization flame detector column).
(§5) The procedure in Example 1 was repeated except that a plurality of methanol-utilizing methylotrophic microorganisms were each aerobically grown in a methanol-containing nutrient medium instead of a methane-containing medium. The nutrients in the medium were the same as indicated in Example 1 except that 0.4% V/V methanol was used as the alcohol dehydrogenase inducer and as the major carbon and energy source for growth. The cells were harvested and washed as described in Example 1. The resting microbial cells of the induced methanol-grown methanol-utilizing methylotrophic microorganisms were then contacted with C3 -C6 secondary alcohols in a buffered solution by the procedure of Example 1.

[7] = tested on: Pseudomonas sp. ATCC 21439; assay: as above; type: cell-based; conditions: methanol-grown, obligate
Experimental: as §3, §4, §5

[8] = tested on: cell extracts of Kloeckera sp. strain A2 NRRL Y-11,420; assay: NAD+-dependent oxidation of secondary alcohols by cell extracts of yeasts; type: biochemical; conditions: cell extracts, grown on methanol, NAD+; gas chromatography
[9] = tested on: cell extracts of Torulopsis sp. strain A1 NRRL Y-11,419; assay: as above; type: biochemical; conditions: cell extracts, grown on methanol, NAD+; gas chromatography
[10] = tested on: secondary alcohol dehydrogenase; assay: Activity of purified yeast-derived secondary alcohol dehydrogenase; type: biochemical, Pichia sp. NRRL Y-11,328; conditions: spectrophotometric
[11] = tested on: cell extracts of Pichia sp. NRRL Y-11,328; assay: NAD+-dependent oxidation of secondary alcohols by cell extracts of yeasts; type: biochemical; conditions: grown on methanol, gas chromatography
[12] = tested on: Hansenula polymorpha ATCC 26012; assay: Oxidation of sec-alcohols to ketones by cell suspensions of yeasts; type: cell-based
[13] = tested on: Methanomonas methylovora ATCC 21852; assay: Oxidation of sec-alcohols to ketones by resting cell suspension; type: cell-based
Experimental: as §3, §4, §5
(§6) The procedure in Example 1 was repeated except that the methylotrophic microorganisms were each aerobically grown in an alcohol dehydrogenase-inducing growth medium containing methylamine or methyl formate as the alcohol dehydrogenase enzyme inducer and growth substrate instead of methane. The nutrients in the medium were the same as indicated in Example 1 except that 0.4% V/V of the alcohol dehydrogenase-inducer growth substrate was used as the major carbon and energy source. The cells were harvested and washed as described in Example 1. The resting microbial cells were then contacted with C3 -C6 secondary alcohols in a buffered solution by the conversion procedure of Example 1.

[14] = tested on: Pseudomonas sp. ATCC 21438; assay: as above; type: cell-based
Experimental: as §3, §4, §5, §6

| Structure (SMILES) | Conversion Rate, sec-alcohol to ketone ([1]; growth substrate Ethanol) | Conversion Rate, sec-alcohol to ketone ([1]; growth substrate Methanol) | Conversion Rate, sec-alcohol to ketone ([1]; growth substrate Methylamine) | Conversion Rate, sec-alcohol to ketone ([1]; growth substrate Methylformate) | Conversion Rate, sec-alcohol to ketone ([1]; growth substrate Propylamine) | Oxidation Rate, sec-alcohol to methyl ketone [2] | Oxidation Rate, sec-alcohol to methyl ketone [3] | Oxidation Rate, sec-alcohol to methyl ketone [4] | Oxidation Rate, sec-alcohol to methyl ketone [5] | Conversion Rates, sec-alcohol to methyl ketone [6] | Conversion Rates, sec-alcohol to methyl ketone [7] | Conversion Rate, secondary alcohol to methylketone [8] | Conversion Rate, secondary alcohol to methylketone [9] | substrate specificity of purified yeast secondary alcohol dehydrogenase (in words) [10] | Conversion Rate, secondary alcohol to methylketone [11] | Conversion Rate, sec-alcohol to ketone ([12]; growth substrate Ethanol) | Conversion Rate, sec-alcohol to ketone ([12]; growth substrate Methanol) | Conversion Rate, sec-alcohol to ketone ([12]; growth substrate Methylamine) | Conversion Rate, sec-alcohol to ketone ([12]; growth substrate Methylformate) | Conversion Rate, sec-alcohol to ketone ([12]; growth substrate Propylamine) | other results |
| --- | --- | --- | --- | --- | --- | --- | --- | --- | --- | --- | --- | --- | --- | --- | --- | --- | --- | --- | --- | --- | --- |
| CCCC(C)O (stereo not shown) [2-Pentanol, 2-pentanol] | 1.2 μmoles/hr/mg of protein | 1.0 μmoles/hr/mg of protein | 0.9 μmoles/hr/mg of protein | 1.1 μmoles/hr/mg of protein | 0.62 μmoles/hr/mg of protein | 0.1 nmole/min/mg protein | 0.1 nmole/min/mg protein | 0.1 nmole/min/mg protein | 1.2 nmole/min/mg protein | 2.1 μmoles/hr/mg protein | 0.05 μmoles/hr/mg protein | 1.2 μmoles/hr/mg Protein | 1.0 μmoles/hr/mg Protein | catalyzed the oxidation | 1.2 μmoles/hr/mg Protein | 1.1 μmoles/hr/mg of protein | 1.4 μmoles/hr/mg of protein | 1.2 μmoles/hr/mg of protein | 1.3 μmoles/hr/mg of protein | 0.82 μmoles/hr/mg of protein | Conversion Rates, sec-alcohol to methyl ketone ([13]; methanol-grown, obligate): 2.1 μmoles/hr/mg protein; Conversion Rates, sec-alcohol to methyl ketone ([13]; methyl formate-grown): 1.5 μmoles/hr/mg protein; Conversion Rates, sec-alcohol to methyl ketone ([13]; methylamine-grown): 1.0 μmoles/hr/mg protein; Conversion Rates, sec-alcohol to methyl ketone ([14]; methanol-grown, facultative): 2.7 μmoles/hr/mg protein; Conversion Rates, sec-alcohol to methyl ketone ([14]; methyl formate-grown): 2.0 μmoles/hr/mg protein; Conversion Rates, sec-alcohol to methyl ketone ([14]; methylamine-grown): 0.82 μmoles/hr/mg protein |
| CC(C)O [2-Propanol, 2-propanol] | 4.2 μmoles/hr/mg of protein | 4.5 μmoles/hr/mg of protein | 4.3 μmoles/hr/mg of protein | 4.5 μmoles/hr/mg of protein | 3.2 μmoles/hr/mg of protein | 2.1 nmole/min/mg protein | 2.0 nmole/min/mg protein | 1.7 nmole/min/mg protein | 21.2 nmole/min/mg protein | 0.80 μmoles/hr/mg protein | 7.4 μmoles/hr/mg protein | 4.8 μmoles/hr/mg Protein | 4.5 μmoles/hr/mg Protein | catalyzed the oxidation | 5.5 μmoles/hr/mg Protein | 5.0 μmoles/hr/mg of protein | 5.9 μmoles/hr/mg of protein | 5.2 μmoles/hr/mg of protein | 5.6 μmoles/hr/mg of protein | 4.1 μmoles/hr/mg of protein | Conversion Rates, sec-alcohol to methyl ketone ([13]; methanol-grown, obligate): 0.28 μmoles/hr/mg protein; Conversion Rates, sec-alcohol to methyl ketone ([13]; methyl formate-grown): 0.62 μmoles/hr/mg protein; Conversion Rates, sec-alcohol to methyl ketone ([13]; methylamine-grown): 0.82 μmoles/hr/mg protein; Conversion Rates, sec-alcohol to methyl ketone ([14]; methanol-grown, facultative): 0.45 μmoles/hr/mg protein; Conversion Rates, sec-alcohol to methyl ketone ([14]; methyl formate-grown): 0.52 μmoles/hr/mg protein; Conversion Rates, sec-alcohol to methyl ketone ([14]; methylamine-grown): 1.0 μmoles/hr/mg protein |
